Measurements published in ChEMBL document CHEMBL4177637, “Proapoptotic modification of substituted isoindolinones as MDM2-p53 inhibitors” (2017).
Active and inactive are the calls of the source. The calls are words filed in the database; no cut-off is given here.

Legend:
HCT-116 [1] = test: Growth inhibition of human HCT116 cells harboring p53+/+ after 48 hrs by Hoechst 33258 staining based fluorescence assay; assay type: functional; conditions: HCT-116, 48 h
HCT-116 [2] = test: Growth inhibition of human p53 knockdown HCT116 cells after 48 hrs by Hoechst 33258 staining based fluorescence assay; assay type: functional; conditions: HCT-116, 48 h
U2OS = test: Induction of apoptosis in human U2OS cells at 10 uM after 24 hrs by Annexin V-FITC/propidium iodide based FACS analysis (Rvb= 0.1%); assay type: functional
[3] = target: Tumour suppressor p53/oncoprotein Mdm2 (Homo sapiens) (UniProt P04637+Q00987); test: Inhibition of MDM2/p53 in human HCT116 cells at 10 uM after 24 hrs by Western blot method; assay type: cell-based
HCT-116 [4] = test: Selectivity ratio of GI50 for human p53 knockdown HCT116 cells to GI50 for human HCT116 cells harboring p53+/+; assay type: functional

Sequence of Tumour suppressor p53/oncoprotein Mdm2 (Homo sapiens) (P04637 whole entry, looked up): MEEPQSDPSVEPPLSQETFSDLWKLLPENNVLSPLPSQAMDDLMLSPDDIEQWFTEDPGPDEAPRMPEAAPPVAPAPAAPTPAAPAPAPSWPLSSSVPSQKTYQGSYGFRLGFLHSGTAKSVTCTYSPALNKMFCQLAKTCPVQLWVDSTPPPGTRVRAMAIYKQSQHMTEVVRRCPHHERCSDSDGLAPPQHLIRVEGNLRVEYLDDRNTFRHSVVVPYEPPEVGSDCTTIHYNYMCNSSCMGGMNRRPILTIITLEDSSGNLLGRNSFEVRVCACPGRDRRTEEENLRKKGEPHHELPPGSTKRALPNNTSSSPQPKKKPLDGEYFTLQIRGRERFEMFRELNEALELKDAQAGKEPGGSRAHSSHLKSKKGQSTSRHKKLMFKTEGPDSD
Sequence of Tumour suppressor p53/oncoprotein Mdm2 (Homo sapiens) (Q00987 whole entry, looked up): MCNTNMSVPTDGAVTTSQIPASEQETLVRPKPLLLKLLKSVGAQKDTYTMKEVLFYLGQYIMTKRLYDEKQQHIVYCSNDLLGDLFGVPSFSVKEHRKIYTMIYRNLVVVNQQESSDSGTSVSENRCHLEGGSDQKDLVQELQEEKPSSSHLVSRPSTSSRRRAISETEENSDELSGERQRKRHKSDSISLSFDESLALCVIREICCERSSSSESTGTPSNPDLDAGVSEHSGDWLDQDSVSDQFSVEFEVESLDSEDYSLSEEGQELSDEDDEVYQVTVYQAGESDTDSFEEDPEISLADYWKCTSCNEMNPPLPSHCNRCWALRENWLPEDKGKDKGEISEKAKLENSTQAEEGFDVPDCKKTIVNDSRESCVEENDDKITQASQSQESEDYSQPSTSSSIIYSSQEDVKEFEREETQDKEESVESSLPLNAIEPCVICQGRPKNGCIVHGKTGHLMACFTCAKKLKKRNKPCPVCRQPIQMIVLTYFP

Row | GI50 (HCT-116 [1]) | GI50 (HCT-116 [2]) | inhibition [3] | Structure (SMILES) | Activity (U2OS) | RatioGI50 (HCT-116 [4])
1 | 8 µM | 27 µM | – | COc1ccc(C2=N[C@@H](c3ccc(Cl)cc3)[C@@H](c3ccc(Cl)cc3)N2C(=O)N2CCNC(=O)C2)c(OC(C)C)c1 [NUTLIN-3] | 31% | –
2 | 12 µM | 45 µM | – | N[C@H](C(=O)OCCCOC1(c2ccc(Cl)cc2)c2ccccc2C(=O)N1Cc1ccc(Cl)cc1)c1ccccc1 (stereo not given in full) | – | –
3 | 20 µM | 65 µM | – | CC(C)[C@H](N)C(=O)OCC(C)(C)COC1(c2ccc(Cl)cc2)c2ccccc2C(=O)N1Cc1ccccc1 (stereo not given in full) | – | –
4 | 60 µM | 68 µM | – | O=C1c2ccccc2C(OCCCO)(c2ccc(Cl)cc2)N1Cc1ccc(Cl)cc1 (stereo not given) | – | –
5 | 20 µM | 65 µM | – | CC(C)[C@H](N)C(=O)OCCCOC1(c2ccc(Cl)cc2)c2ccccc2C(=O)N1Cc1ccccc1 (stereo not given in full) | – | –
6 | 46 µM | 68 µM | – | CC(=O)OCCCOC1(c2ccc(Cl)cc2)c2ccccc2C(=O)N1Cc1ccc(Cl)cc1 (stereo not given) | – | –
7 | 11 µM | 40 µM | – | CC(C)[C@H](N)C(=O)OCC(C)(C)COC1(c2ccc(Cl)cc2)c2ccccc2C(=O)N1Cc1ccc(Cl)cc1 (stereo not given in full) | – | –
8 | 8 µM | 38 µM | Active | CC(C)(COC(=O)[C@@H](N)c1ccccc1)COC1(c2ccc(Cl)cc2)c2ccccc2C(=O)N1Cc1ccc(Cl)cc1 (stereo not given in full) | 33.1% | <=4.75
9 | 38 µM | 70 µM | – | CC(=O)OCC(C)(C)COC1(c2ccc(Cl)cc2)c2ccccc2C(=O)N1Cc1ccccc1 (stereo not given) | – | –
10 | 15 µM | 44 µM | – | CC(C)(COC(=O)[C@@H](N)c1ccccc1)COC1(c2ccc(Cl)cc2)c2ccccc2C(=O)N1Cc1ccccc1 (stereo not given in full) | – | –
11 | 50 µM | 80 µM | – | CC(=O)OCCCOC1(c2ccc(Cl)cc2)c2ccccc2C(=O)N1Cc1ccccc1 (stereo not given) | – | –
12 | 79 µM | 90 µM | – | O=C1c2ccccc2C(OCCCO)(c2ccc(Cl)cc2)N1Cc1ccccc1 (stereo not given) | – | –
13 | 16 µM | 60 µM | – | CC(C)[C@H](N)C(=O)OCCCOC1(c2ccc(Cl)cc2)c2ccccc2C(=O)N1Cc1ccc(Cl)cc1 (stereo not given in full) | – | –
14 | 14 µM | 43 µM | – | N[C@H](C(=O)OCCCOC1(c2ccc(Cl)cc2)c2ccccc2C(=O)N1Cc1ccccc1)c1ccccc1 (stereo not given in full) | – | –
15 | 50 µM | 65 µM | Active | CC(C)(CO)COC1(c2ccc(Cl)cc2)c2ccccc2C(=O)N1Cc1ccc(Cl)cc1 (stereo not given) | 2% | –
16 | 71 µM | 82 µM | – | CC(C)(CO)COC1(c2ccc(Cl)cc2)c2ccccc2C(=O)N1Cc1ccccc1 (stereo not given) | – | –
17 | 35 µM | 70 µM | – | CC(=O)OCC(C)(C)COC1(c2ccc(Cl)cc2)c2ccccc2C(=O)N1Cc1ccc(Cl)cc1 (stereo not given) | – | –
